Assay results taken from PubChem BioAssay AID248 (DTP/NCI, 2004).
Toxic doses and inconclusive results are not listed. Rule as the data show it: active = T/C of 150% or more; inactive = T/C below 125%.

System: L1210 leukemia ip in BDF1 mice, survival T/C
Experiment: NCI In Vivo Anticancer Drug Screen. Data for tumor model L1210 Leukemia (intraperitoneal) in B6D2F1 (BDF1) mice
Conditions: endpoint: mean survival time, higher = longer survival
Summary of the method: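 Transplantable tumor model; survival measured in treated vs vehicle control mice. Value = treated/control.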

[1] = dose: 100.0 mg/kg/injection, schedule: Q04DX003 (ip), vehicle: Klucel (hydroxypropylcellulose) (HPC)
[2] = dose: 100.0 mg/kg/injection, schedule: Q04DX003 (ip), vehicle: saline
[3] = dose: 50.0 mg/kg/injection, schedule: Q01DX009 (ip), vehicle: Klucel (hydroxypropylcellulose) (HPC)
[4] = dose: 100.0 mg/kg/injection, schedule: Q01DX009 (ip), vehicle: Klucel (hydroxypropylcellulose) (HPC)
[5] = dose: 200.0 mg/kg/injection, schedule: Q01DX009 (ip), vehicle: Klucel (hydroxypropylcellulose) (HPC)
[6] = dose: 400.0 mg/kg/injection, schedule: Q01DX009 (ip), vehicle: Klucel (hydroxypropylcellulose) (HPC)
[7] = dose: 100.0 mg/kg/injection, schedule: Q04DX002 (ip), vehicle: Klucel (hydroxypropylcellulose) (HPC)
[8] = dose: 200.0 mg/kg/injection, schedule: Q04DX002 (ip), vehicle: Klucel (hydroxypropylcellulose) (HPC)
[9] = dose: 400.0 mg/kg/injection, schedule: Q04DX002 (ip), vehicle: Klucel (hydroxypropylcellulose) (HPC)
[10] = dose: 100.0 mg/kg/injection, schedule: Q01DX001 (ip), vehicle: Klucel (hydroxypropylcellulose) (HPC)
[11] = dose: 200.0 mg/kg/injection, schedule: Q01DX001 (ip), vehicle: Klucel (hydroxypropylcellulose) (HPC)
[12] = dose: 400.0 mg/kg/injection, schedule: Q01DX001 (ip), vehicle: Klucel (hydroxypropylcellulose) (HPC)
[13] = dose: 100.0 mg/kg/injection, schedule: Q04DX003 (ip), vehicle: saline with Tween-80
[14] = dose: 200.0 mg/kg/injection, schedule: Q04DX003 (ip), vehicle: saline with Tween-80

Measured: T/C

CC1CN(Cc2ccccc2)CC(C)N1C(=O)c1ccccc1 (stereo not drawn)
inactive: dose: 100.0 mg/kg/injection, schedule: Q01DX009 (ip), vehicle: water 95 % of control | dose: 100.0 mg/kg/injection, schedule: Q04DX003 (ip), vehicle: water 109 % of control | dose: 200.0 mg/kg/injection, schedule: Q01DX009 (ip), vehicle: water 93 % of control | dose: 200.0 mg/kg/injection, schedule: Q04DX003 (ip), vehicle: water 113 % of control | dose: 400.0 mg/kg/injection, schedule: Q01DX009 (ip), vehicle: water 104 % of control | dose: 400.0 mg/kg/injection, schedule: Q04DX003 (ip), vehicle: water 110 % of control

C1CCC2(CC1)CCCCC2
inactive: dose: 5.0 mg/kg/injection, schedule: Q01DX001 (ip), vehicle: saline 97 % of control | dose: 10.0 mg/kg/injection, schedule: Q01DX001 (ip), vehicle: saline 103 % of control | dose: 20.0 mg/kg/injection, schedule: Q01DX001 (ip), vehicle: saline 93 % of control | dose: 40.0 mg/kg/injection, schedule: Q01DX001 (ip), vehicle: saline 97 % of control | dose: 80.0 mg/kg/injection, schedule: Q01DX001 (ip), vehicle: saline 100 % of control

O=S(=O)(O)c1ccc(O)cc1
inactive: dose: 50.0 mg/kg/injection, schedule: Q04DX003 (ip), vehicle: Klucel (hydroxypropylcellulose) (HPC) 98 % of control | dose: 100.0 mg/kg/injection, schedule: Q01DX009 (ip), vehicle: saline 110 % of control | [1] 104 % of control | [2] 114 % of control | dose: 200.0 mg/kg/injection, schedule: Q01DX009 (ip), vehicle: saline 107 % of control | dose: 200.0 mg/kg/injection, schedule: Q04DX003 (ip), vehicle: Klucel (hydroxypropylcellulose) (HPC) 124 % of control | dose: 200.0 mg/kg/injection, schedule: Q04DX003 (ip), vehicle: saline 97 % of control | dose: 400.0 mg/kg/injection, schedule: Q01DX009 (ip), vehicle: saline 101 % of control | dose: 400.0 mg/kg/injection, schedule: Q04DX003 (ip), vehicle: saline 101 % of control

COC1=C(N2CC2)C(=O)C(OC)=C(N2CC2)C1=O
inactive: dose: 0.5 mg/kg/injection, schedule: Q01DX009 (ip), vehicle: carboxymethylcellulose (CMC) 114 % of control | dose: 1.0 mg/kg/injection, schedule: Q01DX009 (ip), vehicle: carboxymethylcellulose (CMC) 124 % of control | dose: 3.0 mg/kg/injection, schedule: Q01DX009 (ip), vehicle: carboxymethylcellulose (CMC) 121 % of control

CC(C)n1cc2cc([N+](=O)[O-])ccc2n1
inactive: [3] 91 % of control | [4] 97 % of control | [5] 97 % of control

Cc1cc(Cl)cc(C)c1OC(=O)Nc1ccc(F)cc1
inactive: [4] 96 % of control | [5] 95 % of control | [6] 107 % of control

CCOC(OCC)c1ccccc1 (tested in a mixture with another compound)
inactive: dose: 100.0 mg/kg/injection, schedule: Q01DX009 (ip), vehicle: saline with Tween-80 100 % of control | dose: 200.0 mg/kg/injection, schedule: Q01DX009 (ip), vehicle: saline with Tween-80 100 % of control | dose: 400.0 mg/kg/injection, schedule: Q01DX009 (ip), vehicle: saline with Tween-80 94 % of control

CCOC(=O)Cn1c(=O)n(CC(=O)OCC)c2ccccc21
inactive: [7] 104 % of control | [8] 100 % of control | [9] 110 % of control

Nc1ncc(CSCc2ccccc2)c(-c2ccccc2)n1
inactive: dose: 100.0 mg/kg/injection, schedule: Q04DX002 (ip), vehicle: saline with Tween-80 100 % of control | dose: 200.0 mg/kg/injection, schedule: Q04DX002 (ip), vehicle: saline with Tween-80 96 % of control | dose: 400.0 mg/kg/injection, schedule: Q04DX002 (ip), vehicle: saline with Tween-80 96 % of control

CC(=O)c1cc2cc(Br)ccc2oc1=O
inactive: [4] 98 % of control | [5] 88 % of control | [6] 96 % of control

O=[N+]([O-])c1ccc(OCc2ccc(COc3ccc(S(=O)(=O)F)cc3)cc2)c(Cl)c1
inactive: dose: 100.0 mg/kg/injection, schedule: Q01DX001 (ip), vehicle: saline with Tween-80 90 % of control | dose: 200.0 mg/kg/injection, schedule: Q01DX001 (ip), vehicle: saline with Tween-80 102 % of control | dose: 400.0 mg/kg/injection, schedule: Q01DX001 (ip), vehicle: saline with Tween-80 96 % of control

Nc1c(Cl)cc(Cl)c(-c2c(Cl)cc(Cl)c([N+](=O)[O-])c2Cl)c1Cl
inactive: [10] 106 % of control | [11] 101 % of control | [12] 95 % of control

O=C(Cl)C(=O)c1c[nH]c2ccccc12
inactive: [7] 101 % of control | [8] 101 % of control | [9] 95 % of control

O=P(NC12CC3CC(CC(C3)C1)C2)(NC12CC3CC(CC(C3)C1)C2)N(CCCl)CCCl
inactive: [3] 112 % of control | [10] 105 % of control | [4] 104 % of control | [11] 94 % of control | [5] 89 % of control | [12] 98 % of control

O=P(Nc1ccccc1)(Nc1ccccc1)Nc1ccccc1
inactive: dose: 50.0 mg/kg/injection, schedule: Q04DX002 (ip), vehicle: gum acacia 95 % of control | dose: 100.0 mg/kg/injection, schedule: Q01DX009 (ip), vehicle: gum acacia 100 % of control | dose: 100.0 mg/kg/injection, schedule: Q04DX002 (ip), vehicle: gum acacia 95 % of control | dose: 200.0 mg/kg/injection, schedule: Q01DX009 (ip), vehicle: gum acacia 97 % of control | dose: 200.0 mg/kg/injection, schedule: Q04DX002 (ip), vehicle: gum acacia 92 % of control | dose: 400.0 mg/kg/injection, schedule: Q01DX009 (ip), vehicle: gum acacia 89 % of control

CC(C)(C)COC(=O)CCN1CC1
inactive: dose: 20.0 mg/kg/injection, schedule: Q01DX009 (ip), vehicle: Klucel (hydroxypropylcellulose) (HPC) 119 % of control | dose: 20.0 mg/kg/injection, schedule: Q04DX003 (ip), vehicle: Klucel (hydroxypropylcellulose) (HPC) 103 % of control | dose: 40.0 mg/kg/injection, schedule: Q01DX009 (ip), vehicle: Klucel (hydroxypropylcellulose) (HPC) 97 % of control | dose: 40.0 mg/kg/injection, schedule: Q04DX003 (ip), vehicle: Klucel (hydroxypropylcellulose) (HPC) 114 % of control | dose: 80.0 mg/kg/injection, schedule: Q04DX003 (ip), vehicle: Klucel (hydroxypropylcellulose) (HPC) 101 % of control | [1] 110 % of control

CCCCS(=O)(=O)OCCCCOS(=O)(=O)CCCC
inactive: dose: 240.0 mg/kg/injection, schedule: Q01DX Z (ip), vehicle: saline 100 % of control | dose: 360.0 mg/kg/injection, schedule: Q01DX Z (ip), vehicle: saline 115 % of control | dose: 810.0 mg/kg/injection, schedule: Q01DX Z (ip), vehicle: saline 90 % of control

Cc1cc(NCC2CCNCC2)nc(/N=C(\N)Nc2ccc(Cl)c(Cl)c2)n1
inactive: dose: 12.5 mg/kg/injection, schedule: Q04DX003 (ip), vehicle: saline 102 % of control | dose: 25.0 mg/kg/injection, schedule: Q04DX003 (ip), vehicle: saline 113 % of control | dose: 50.0 mg/kg/injection, schedule: Q04DX003 (ip), vehicle: saline 102 % of control | [2] 106 % of control

CC1C(C(=O)c2ccc(-c3ccccc3)cc2)N1C1CCCCC1 (stereo not drawn)
inactive: [13] 93 % of control | [14] 86 % of control

CC(=N)c1c(O)cc(C)oc1=O
inactive: [13] 108 % of control | [14] 101 % of control | dose: 400.0 mg/kg/injection, schedule: Q04DX003 (ip), vehicle: saline with Tween-80 92 % of control

Nc1ncnc(N)c1NC(=O)c1ccc(C(=O)c2cccc([N+](=O)[O-])c2)cc1
inactive: dose: 100.0 mg/kg/injection, schedule: Q01DX001 (ip), vehicle: gum acacia 97 % of control | dose: 200.0 mg/kg/injection, schedule: Q01DX001 (ip), vehicle: gum acacia 100 % of control | dose: 400.0 mg/kg/injection, schedule: Q01DX001 (ip), vehicle: gum acacia 93 % of control
